Test results taken from patent US8394785B2, “Methods for the treatment and amelioration of urticaria” (Jado Technologies GmbH, priority 2005, dated 2013).

Assays:
[1] = system: human basophils; experiment: Histamine release assay, anti-IgE induced, human basophils; type: cell-based; details: 10 minutes pre-incubation, read-out: maximal inhibitory effect on anti-IgE induced histamine release
Procedure: (§1) Human basophils were isolated from whole blood using ficoll paque (D=1.077). Briefly, heparinized whole blood was diluted 1:3 with PBS (w/o Ca and Mg), layered on the ficoll paque solution, and centrifuged for 30 min at 400×g. Low-density particles such as lymphocytes, monocytes, basophils, and platelets were recovered from the interface between the plasma and ficoll solution. The cell suspension from the interface was centrifuged twice at 200×g for 10 min for removal of thrombocytes from the basophil fraction. The number of basophils in the cell suspension was determined by Toluidin blue staining. The yield of basophils was approximately 2%. These pre-purified basophils were used for the histamine release assay. For the cytokine release assays, basophils were further purified using the “Basophil Isolation Kit” for depletion of non-basophils from the interface cell suspension. […] The quantification of histamine levels was achieved using an automated histamine-analyser system (Firm Borgwelt Technik). The wavelength of the excitation was 355-360 nm and the emission wavelength of fluorescence measurement was 450-460 nm. The intensity of fluorescence was directly proportional to the concentration of histamine in the samples. The amount of released histamine was calculated according to the following formula: net histamine release=(release−blank)×(100/complete). […]

[2] = system: allergic volunteers with known type-1-sensitizations; experiment: Prick test with histamine after topical pre-treatment, wheal size; type: in vivo, human; details: n = 5; for histamine-prick wheal ± standard error: miltefosine pre-treatment (6% solution, topical, 2 h before); for histamine-prick % inhibition ± standard error (by miltefosine pre-treatment): versus placebo pre-treatment
From the text: (§2) To provide proof of concept that miltefosine inhibits IgE-dependent human mast cell stimulation and mediator release in vivo we performed a study on selected allergic volunteers with known type-1-sensitizations (n=5). The volunteers were subjected to standard prick testing with their known allergens on both forearms as well as with positive (histamine) and negative (saline) controls (Table 3). Using a double blind, placebo controlled approach, one forearm of each test person was pre-treated with topical miltefosine (6% solution). The contralateral side was subjected to a pre-treatment with a placebo solution (saline), both two hours prior to the prick test. Subsequently, developing skin symptoms were measured with high-quality standardized methods, i.e. macroscopic standard prick test-evaluation (Heinzerling et al 2005), volumetric imaging, thermography, and digital time lapse photography (DTLP). Volunteers known to suffer from permanent severe diseases, especially those affecting the immune system, were excluded from the study. None of the volunteers took any oral […] or leukotriene antagonists within 7 days prior to the beginning of the study. Moreover, none of them took any oral or depot corticosteroids or other immunosuppressive drugs within 21 days before the testing. The course of developing lesions (wheal and erythema size) was assessed macroscopically by measuring vertical and perpendicular diameter of wheal and erythema size. Subsequently, the sum of both diameters was divided by two. In addition, volumetric and thermographic imaging as well as DTLP was performed before and at defined time points after prick testing. To assess the course of developing prick test lesions, wheal size was assessed macroscopically by measuring the diameters at distinct time points after prick testing.

[3] = system: membrane integrity (lactate dehydrogenase release)
[4] = system: allergic volunteers with known type-1-sensitizations; experiment: Prick test with patient-specific allergen after topical pre-treatment, wheal size; type: in vivo, human; details: n = 5; for allergen-prick wheal ± standard error: miltefosine pre-treatment (6% solution, topical, 2 h before); for allergen-prick % inhibition ± standard error (by miltefosine pre-treatment): versus placebo pre-treatment
From the text: as §2

[5] = system: human basophils; experiment: Histamine release assay, C5a induced, human basophils; type: cell-based
Procedure: as §1

Compound: CCCCCCCCCCCCCCCCOP(=O)([O-])OCC[N+](C)(C)C [Compound 3, 1-hexadecylphosphoryl-choline]
- inhibition at 25 µM [1]: 10%
- histamine-prick wheal ± standard error ([2]; 15 minutes after prick testing): 4.40 ± 0.86 mm
- histamine-prick wheal ± standard error ([2]; 20 minutes after prick testing): 4.30 ± 1.08 mm
- histamine-prick wheal ± standard error ([2]; 30 minutes after prick testing): 3.40 ± 1.43 mm
- histamine-prick % inhibition ± standard error (by miltefosine pre-treatment) ([2]; 15 minutes after prick testing): 22.4 ± 14.2%
- histamine-prick % inhibition ± standard error (by miltefosine pre-treatment) ([2]; 20 minutes after prick testing): 19.2 ± 23.1%
- histamine-prick % inhibition ± standard error (by miltefosine pre-treatment) ([2]; 30 minutes after prick testing): −7.9 ± 23.2%
- CD50 [3]: 69.5 µM
- allergen-prick wheal ± standard error ([4]; 15 minutes after prick testing): 4.20 ± 1.36 mm
- allergen-prick wheal ± standard error ([4]; 20 minutes after prick testing): 4.40 ± 1.34 mm
- allergen-prick wheal ± standard error ([4]; 30 minutes after prick testing): 2.90 ± 1.36 mm
- allergen-prick % inhibition ± standard error (by miltefosine pre-treatment) ([4]; 15 minutes after prick testing): 35.0 ± 16.6%
- allergen-prick % inhibition ± standard error (by miltefosine pre-treatment) ([4]; 20 minutes after prick testing): 34.8 ± 18.0%
- allergen-prick % inhibition ± standard error (by miltefosine pre-treatment) ([4]; 30 minutes after prick testing): 51.8 ± 22.8%
- inhibition at 25 µM [5]: 75%
